Laboratory results taken from patent US20220088199A1, “METHOD FOR PROTECTING GLYCEROL ALKYL ETHERS FROM OXIDATION” (SACHEM, INC., priority 2016, published 2022).

Columns and labels:
[1] = Stability testing of SASKINE50 blends at 50° C., analysed by GC (Example 2); settings: for loss of SASKINE50 (3-[(2-ethylhexyl)oxy]-1,2-propanediol) assay on storage: one month, 725 ppm antioxidant in 99.6% pure SASKINE50, FIG. 3
Description: The blend is analyzed via gas chromatography (GC) prior to stability testing. Following the analysis result, the blend is placed under atmospheric pressure and under an inert gas into individual sample bottles as not to disturb the testing conditions during sampling. The test conditions are 50° C. for one month. […] These test conditions are considered to simulate a shelf-life of approximately one year at room temperature.
The samples are dissolved in isopropyl alcohol at a concentration of 10% for the GC analysis. The following GC conditions are used:
Column: • Material: fused silica WCOT • Length: 30 m • Internal diameter: 0.32 mm • Stationary phase: DB1701 • Film thickness: 1 μm • Gas regulation: Carrier gas: hydrogen • Make-up gas: helium • Temperatures: Detector: 300° C. • Injector: 275° C. • Start temperature: 115° C. • Warm up speed 1: 8° C./minute • End temperature: 210° C. • Warm up speed 2: 15° C./minute • End temperature: 275° C.
Detection: Type detector: FID

[2] = Stability testing at room temperature: formation of formaldehyde and peroxides (Example 1); assay type: physicochemical; settings: zero time
From the text: The thus-prepared compositions are subjected to stability testing, under which formation of formaldehyde and peroxides and determined as indicators of stability, in which higher amounts of formaldehyde and/or peroxides are deemed to show lower stability of the mixture. […] This sample is obtained commercially from Schulke GmbH. The tests for all samples determine the formaldehyde and peroxide contents of the test sample when stored at room temperature (RT), for periods of 0, 2, 4, 6, 8, 10 and 12 months. The 0 month sample is the freshly prepared composition.

[3] = system: human reconstructed epidermis (SkinEthic model); assay: In vitro skin irritation study, SkinEthic model, OECD 439; assay type: cell-based; settings: pure product applied 42 minutes, 42 hours incubation; MTT viability and IL1-α; FIG. 8
Description: As noted herein, the inventive compositions are intended for use in cosmetic and pharmaceutical compositions. One important criteria for such products is that there be no skin irritation, when the compositions are applied to the skin of the person using the cosmetic or pharmaceutical composition. To test the compositions of the present invention, a non-animal test is conducted, which is an in vitro skin irritation study of the compositions on human reconstructed epidermis known as the SkinEthic model, OECD 439. […] After the pure product has been applied to the epidermis for 42 minutes and they have been incubated for 42 hours post-treatment, cell viability is determined by measuring mitochondrial succinate dehydrogenase activity in living cells. […] A spectrophotometer is used to read the results after the crystals have been dissolved. The measured absorbances are proportional to the number of living cells. In addition, release of inflammation (IL1-α) mediators is measured by colorimeter if cell viability is over 50%. […] Cytotoxicity: absorbance is measured three times at 540 nm. The results are expressed as a viability percentage compared to a negative control: […]
IL1-α titration: IL1-α concentrations in the culture media are evaluated using the instructions on the titration kit and are expressed as pg/ml. […]

[4] = Stability testing of SASKINE80 blend at 50° C., analysed by GC (Example 3); assay type: physicochemical
Description: In this example, SACHEM's SASKINE80™ is used as basis for the stability testing of […] within the scope of the present invention, i.e., naringenin. A pre-defined blend containing SASKINE80™ and this anti-oxidant compound in accordance with the present invention are prepared, the blend containing 725 ppm of the naringenin in 99.6% pure SASKINE80™ (3-[(n-octyl)oxy]-1,2-propanediol). […] The test conditions are 50° C. for two weeks and four weeks.

[5] = system: microbial strain (bacteria, yeasts, molds); assay: Minimum inhibitory concentration (MIC) determination; assay type: cell-based; settings: FIG. 7; compared to plain material and Sensiva
Description: As discussed in the background, the purpose of the glyceryl ether compounds such as SASKINE50™ and SASKINE80™ is as a preservative and antimicrobial, especially in cosmetics and pharmaceutical preparations. To test the SASKINE50™ and SASKINE80™, minimum inhibitory concentrations are determined for SASKINE50™ alone, SASKINE50™ with naringenin, SASKINE80™ alone, and SASKINE80™ with naringenin, and, for comparison, Sensiva® SC 50, which contains 3-[(2-ethylhexyl)oxy]-1,2-propanediol and synthetic alpha-tocopherol, which is commercially available from Schülke & Mayr Benelux B.V., 2032 HA-Haarlem, Netherlands. The determination of the minimal inhibitory concentration (MIC) is carried out according to the standard procedure described below.
The purpose of the MIC study is to find a minimum concentration of the test item which will enable to inhibit in vitro the growth of a microbial strain. The MIC characterizes the bacteriostatic or fungistatic effect of a product.
In the MIC test, the product is diluted according to a geometric progression of reason 2 over a range of at least 5 dilutions starting from the maximum concentration to be tested specified by the customer. In each tube of the dilution range, a cultured medium double concentered is included with the strains to be tested. […]

Row | Structure (SMILES) | loss of SASKINE50 (3-[(2-ethylhexyl)oxy]-1,2-propanediol) assay on storage [1] | also measured
1 | CCCCC(CC)COCC(O)CO (centres unmarked) [SASKINE50™, 3-[(2-ethylhexyl)oxy]-1,2-propanediol] | significant loss | increase in volatile degradation products (low boiling compounds) ([1]; 2 weeks and 4 weeks, 725 ppm antioxidant in SASKINE50, FIG. 4): significant amount of breakdown products; peroxide present ([2]; Example 1, FIG. 1): measurable, non-zero amount; formaldehyde present ([2]; Example 1, FIG. 2): measurable, non-zero amount; skin irritation classification [3]: irritant of category 1 or 2
2 | CCCCCCCCOCC(O)CO (centres unmarked) [SASKINE80™, 3-[(n-octyl)oxy]-1,2-propanediol] | – | increase in low boiling compounds ([4]; two and four weeks, FIG. 5b): notable increase; SASKINE80 assay decrease ([4]; two weeks and four weeks, FIG. 5a): about 0.40%; minimum inhibitory concentration (anti-microbial growth) [5]: even better performance
3 | COc1ccc(-c2cc(=O)c3c(O)cc(O)cc3o2)cc1O [diosmetin] | almost no loss | –
4 | O=C1C[C@@H](c2ccc(O)cc2)Oc2cc(O)cc(O)c21 [naringenin] | almost no loss | –
5 | C[C@@H]1O[C@@H](O[C@H]2[C@H](Oc3cc(O)c4c(c3)O[C@H](c3ccc(O)cc3)CC4=O)O[C@H](CO)[C@@H](O)[C@@H]2O)[C@H](O)[C@H](O)[C@H]1O [naringin hydrate] | performed less well | –
6 | O.O=c1c(O)c(-c2ccc(O)cc2O)oc2cc(O)cc(O)c12 [norinhydrate] | almost no loss | –
7 | O=c1c(O)c(-c2ccc(O)c(O)c2)oc2cc(O)cc(O)c12 [quercetin] | almost no loss | –
8 | COc1cc(O)c2c(=O)c(O)c(-c3ccc(O)c(O)c3)oc2c1 [rhamnetin] | almost no loss | –
